This is an account of results in US10669272B2, “Substituted naphthyridinone compounds useful as T cell activators” (BRISTOL-MYERS SQUIBB COMPANY, priority 2018, dated 2020).

Read-outs that look alike come from different tables or passages of the source.

The target of test [1] is T1, human DGKζ (Homo sapiens, UniProt Q13574).
T1 construct: TVMV protease cleavage site (C); Hexa-His (C); made in house; host or cells: Sf9 insect cells (baculovirus, Bac-to-Bac)
The test is described as follows: DGKζ LIPGLO assay (extruded liposome substrate), in vitro DGK inhibition. The following applies: liposome (LIPGLO) assay; read-out: DGKz LIPGLO IC50. Type of test: biochemical.

The target in test [2] is T2, human DGKα (Homo sapiens, UniProt P23743).
T2 construct: TVMV protease cleavage site (C); Hexa-His (C); made in house; host or cells: Sf9 insect cells (baculovirus, Bac-to-Bac)
The test is described as follows: DGKα LIPGLO assay (extruded liposome substrate), in vitro DGK inhibition. Type of test: biochemical. To be noted: liposome (LIPGLO) assay; read-out: DGKa LIPGLO IC50.

The test system of test [3] is naïve human CD8 T cells. The test is described as follows: Human CD8 T cells IFN-γ assay.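 Further: Naïve human CD8 T cells stimulated with plate-bound anti-CD3 and soluble anti-CD28, IFN-γ in supernatant quantified by AlphaLISA and converted to pg/mL.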 Type of test: cell-based. To be noted: Homo sapiens, T-cell, 20 h, normalized to 3 μM reference compound with anti-CD3 plus anti-CD28 as 100% activation; read-out: HuCD8 INFG Normalized EC50.
The subject of test [4] is Human venous whole blood. The test is described as follows: Human whole blood IFN-γ assay.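 Further: blood from healthy donors exposed to compound for 1 h before stimulation with anti-CD3 and anti-CD28 at 1 µg/mL each, IFN-γ quantified in supernatant by AlphaLISA.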 To be noted: Homo sapiens, human whole blood, normalized to 3 μM reference compound with anti-CD3 plus anti-CD28 as 100% activation, read-out: INFg Whole Blood Normalized Agonist EC50. Type of test: cell-based.
Method: Human Whole Blood IFN-γ Assay
Human venous whole blood (22.5 μL per well), obtained from healthy donors, was pre-treated with compounds for one hour at 37° C. in a humidified 95% air/5% CO2 incubator. The blood was stimulated with 2.5 μL anti-human CD3 and anti-CD28 mAb at a final concentration of 1 μg/mL each for 24 hours at 37° C. IFN-γ in the supernatants was measured using AlphLISA kit (Cat # AL217).

T1 sequence (Q13574 with tags, fused parts or gaps isoform Q13574-4): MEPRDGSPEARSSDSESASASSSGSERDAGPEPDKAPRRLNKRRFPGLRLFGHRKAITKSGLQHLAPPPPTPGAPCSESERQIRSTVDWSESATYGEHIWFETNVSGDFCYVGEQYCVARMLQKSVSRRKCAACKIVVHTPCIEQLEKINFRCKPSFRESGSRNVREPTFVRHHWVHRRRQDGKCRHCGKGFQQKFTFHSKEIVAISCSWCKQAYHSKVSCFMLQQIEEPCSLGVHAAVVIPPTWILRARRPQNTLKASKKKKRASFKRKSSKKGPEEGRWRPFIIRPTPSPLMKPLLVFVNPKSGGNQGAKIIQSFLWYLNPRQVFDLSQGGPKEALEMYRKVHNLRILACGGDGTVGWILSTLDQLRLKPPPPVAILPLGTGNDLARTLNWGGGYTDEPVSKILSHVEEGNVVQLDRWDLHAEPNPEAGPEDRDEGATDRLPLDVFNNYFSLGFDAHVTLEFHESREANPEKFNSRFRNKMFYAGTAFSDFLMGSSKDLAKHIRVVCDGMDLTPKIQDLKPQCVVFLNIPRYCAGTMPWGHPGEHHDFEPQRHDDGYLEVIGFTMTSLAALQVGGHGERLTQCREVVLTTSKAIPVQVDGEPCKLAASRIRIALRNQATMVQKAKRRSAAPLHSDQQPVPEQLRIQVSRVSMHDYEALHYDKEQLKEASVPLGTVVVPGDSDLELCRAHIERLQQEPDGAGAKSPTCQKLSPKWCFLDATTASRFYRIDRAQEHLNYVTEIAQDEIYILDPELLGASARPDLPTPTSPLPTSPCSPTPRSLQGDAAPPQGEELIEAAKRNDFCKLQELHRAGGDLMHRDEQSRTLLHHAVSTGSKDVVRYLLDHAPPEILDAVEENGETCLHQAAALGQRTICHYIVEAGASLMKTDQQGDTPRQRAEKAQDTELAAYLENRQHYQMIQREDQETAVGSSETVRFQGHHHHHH
T2 sequence (P23743 with tags, fused parts or gaps): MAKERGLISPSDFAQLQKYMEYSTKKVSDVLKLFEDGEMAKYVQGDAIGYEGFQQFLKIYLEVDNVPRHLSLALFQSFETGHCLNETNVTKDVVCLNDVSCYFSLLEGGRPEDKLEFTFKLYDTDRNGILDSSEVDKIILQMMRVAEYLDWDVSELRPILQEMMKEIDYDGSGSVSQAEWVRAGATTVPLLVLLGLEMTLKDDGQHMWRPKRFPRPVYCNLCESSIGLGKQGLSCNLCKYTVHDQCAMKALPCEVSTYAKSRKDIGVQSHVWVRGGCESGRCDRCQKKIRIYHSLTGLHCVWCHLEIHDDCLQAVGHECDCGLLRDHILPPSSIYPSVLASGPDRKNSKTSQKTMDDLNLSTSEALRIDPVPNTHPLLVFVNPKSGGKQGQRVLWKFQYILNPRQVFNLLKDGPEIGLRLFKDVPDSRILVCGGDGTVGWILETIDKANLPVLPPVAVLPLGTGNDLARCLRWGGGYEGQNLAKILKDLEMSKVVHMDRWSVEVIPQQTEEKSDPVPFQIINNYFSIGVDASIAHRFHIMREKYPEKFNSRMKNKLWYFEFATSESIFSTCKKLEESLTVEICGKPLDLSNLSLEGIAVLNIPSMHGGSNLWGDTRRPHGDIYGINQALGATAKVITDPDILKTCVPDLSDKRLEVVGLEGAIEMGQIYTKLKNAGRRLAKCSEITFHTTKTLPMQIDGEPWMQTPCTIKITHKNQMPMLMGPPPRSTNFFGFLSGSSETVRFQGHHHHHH

As to `COc1ccc2c(n1)c(N1C[C@@H](C)N(C(c3ccc(F)cc3)c3ccc(F)cc3)C[C@@H]1C)cc(=O)n2C` [Example 241], the IC50 was determined as 17000 nM in test [1] and 8300 nM in test [2]. In addition, the EC50 in test [3] is 1600 nM; in test [4] (24 h) it was 16000 nM.
For the molecule `C[C@@H]1CN(c2cc(=O)n(C)c3ccc(C#N)nc23)[C@@H](C)CN1Cc1ccc(F)cc1C(F)F` [Example 242, 8-[(2S,5R)-4-{[2-(difluoromethyl)-4-fluorophenyl]methyl}-2,5-dimethylpiperazin-1-yl]-5-methyl-6-oxo-5,6-dihydro-1,5-naphthyridine-2-carbonitrile], the IC50 in test [1] came out at 970 nM; in test [2], 4400 nM. The EC50 amounted to 170 nM in test [3] and 1500 nM in test [4].
For `C[C@@H]1CN(c2cc(=O)n(C)c3ccc(C#N)nc23)[C@@H](C)CN1Cc1ccc(OC(F)(F)F)cc1F` [Example 243, 8-[(2S,5R)-4-{[2-fluoro-4-(trifluoromethoxy)phenyl]methyl}-2,5-dimethylpiperazin-1-yl]-5-methyl-6-oxo-5,6-dihydro-1,5-naphthyridine-2-carbonitrile], the IC50 in test [1] was found to be 1900 nM; in test [2] it was 290 nM. In addition, the EC50 in test [3] came to 160 nM; in test [4] (24 h), 1500 nM.
On the same counts, the results for `C[C@@H]1CN(c2cc(=O)n(C)c3ccc(C#N)nc23)[C@@H](C)CN1Cc1ccc(Cl)cc1O` [Example 244, 8-[(2S,5R)-4-[(4-chloro-2-hydroxyphenyl)methyl]-2,5-dimethylpiperazin-1-yl]-5-methyl-6-oxo-5,6-dihydro-1,5-naphthyridine-2-carbonitrile] are 1100 nM, 260 nM, 110 nM and 1700 nM.
With `C[C@@H]1CN(c2cc(=O)n(C)c3ccc(C#N)nc23)[C@@H](C)CN1Cc1ccccc1O` [Example 245, 8-[(2S,5R)-4-[(2-hydroxyphenyl)methyl]-2,5-dimethylpiperazin-1-yl]-5-methyl-6-oxo-5,6-dihydro-1,5-naphthyridine-2-carbonitrile], the results for the IC50 in test [1] and in test [2] were 1100 nM and 8.6 nM, respectively. The EC50 in test [3] worked out at 750 nM; in test [4] (24 h), 5200 nM.
Turning to `C[C@@H]1CN(c2cc(=O)n(C)c3ccc(C#N)nc23)[C@@H](C)CN1Cc1c(F)cc(F)cc1F` [Example 246, 8-[(2S,5R)-2,5-dimethyl-4-[(2,4,6-trifluorophenyl)methyl]piperazin-1-yl]-5-methyl-6-oxo-5,6-dihydro-1,5-naphthyridine-2-carbonitrile], the figures for the IC50 in test [1] and in test [2] were 460 nM and 120 nM, respectively. In addition, the EC50 is 27 nM in test [3] and 550 nM in test [4] (24 h).
Turning to `C[C@@H]1CN(c2cc(=O)n(C)c3ccc(C#N)nc23)[C@@H](C)CN1Cc1ccc(C#N)cc1F` [Example 253, 8-[(2S,5R)-4-[(4-cyano-2-fluorophenyl)methyl]-2,5-dimethylpiperazin-1-yl]-5-methyl-6-oxo-5,6-dihydro-1,5-naphthyridine-2-carbonitrile], the IC50 in test [1] is 690 nM; in test [2] it was 200 nM. Moreover, the figures for the EC50 in test [3] and in test [4] (24 h) were 87 nM and 3000 nM, respectively.
`C[C@@H]1CN(c2cc(=O)n(C)c3ccc(C#N)nc23)[C@@H](C)CN1Cc1c(F)cccc1C(F)(F)F` [Example 254, 8-[(2S,5R)-4-{[2-fluoro-6-(trifluoromethyl)phenyl]methyl}-2,5-dimethylpiperazin-1-yl]-5-methyl-6-oxo-5,6-dihydro-1,5-naphthyridine-2-carbonitrile]: the IC50 was 1600 nM in test [1] and 140 nM in test [2]. Moreover, the EC50 was 210 nM in test [3] and 2200 nM in test [4] (24 h).
On the same counts, the results for `Cc1cccc(F)c1CN1C[C@H](C)N(c2cc(=O)n(C)c3ccc(C#N)nc23)C[C@H]1C` [Example 255, 8-[(2S,5R)-4-[(2-fluoro-6-methylphenyl)methyl]-2,5-dimethylpiperazin-1-yl]-5-methyl-6-oxo-5,6-dihydro-1,5-naphthyridine-2-carbonitrile] are 1700 nM, 770 nM, 180 nM and 3200 nM.
Turning to `CC(c1c(F)cccc1F)N1C[C@H](C)N(c2cc(=O)n(C)c3ccc(C#N)nc23)C[C@H]1C` (stereo partly drawn) [Example 256, 8-[(2S,5R)-4-[1-(2,6-difluorophenyl)ethyl]-2,5-dimethylpiperazin-1-yl]-5-methyl-6-oxo-5,6-dihydro-1,5-naphthyridine-2-carbonitrile], the IC50 was 570 nM in test [1] and 140 nM in test [2]. Moreover, the EC50 in test [3] came to 22 nM; in test [4], 650 nM.
For the molecule `C[C@@H]1CN(c2cc(=O)n(C)c3ccc(C#N)nc23)[C@@H](C)CN1C(c1cccc(Cl)c1)c1cccc(Cl)c1` [Example 257, 8-[(2S,5R)-4-[bis(3-chlorophenyl)methyl]-2,5-dimethylpiperazin-1-yl]-5-methyl-6-oxo-5,6-dihydro-1,5-naphthyridine-2-carbonitrile], the half-inhibitory concentration (IC50) was found to be 830 nM in test [1] and 25000 nM in test [2]. The EC50 in test [3] is 810 nM; in test [4] (24 h), 6200 nM.
For `C[C@@H]1CN(c2cc(=O)n(C)c3ccc(C#N)nc23)[C@@H](C)CN1C(c1ccccc1F)c1ccccc1F` [Example 258, 8-[(2S,5R)-4-[bis(2-fluorophenyl)methyl]-2,5-dimethylpiperazin-1-yl]-5-methyl-6-oxo-5,6-dihydro-1,5-naphthyridine-2-carbonitrile], in that order: 820 nM, 240 nM, 56 nM and 1400 nM.
For `C[C@@H]1CN(c2cc(=O)n(C)c3ccc(C#N)nc23)[C@@H](C)CN1C(c1ccccc1)c1ccccc1Cl` (stereo partly drawn) [Example 259, 8-[(2S,5R)-4-[(2-chlorophenyl)(phenyl)methyl]-2,5-dimethylpiperazin-1-yl]-5-methyl-6-oxo-5,6-dihydro-1,5-naphthyridine-2-carbonitrile], in that order: 840 nM, 3100 nM, 550 nM and 2100 nM.
As to `C[C@@H]1CN(c2cc(=O)n(C)c3ccc(C#N)nc23)[C@@H](C)CN1Cc1c(Cl)cccc1C#N` [Example 260, 8-[(2S,5R)-4-[(2-chloro-6-cyanophenyl)methyl]-2,5-dimethylpiperazin-1-yl]-5-methyl-6-oxo-5,6-dihydro-1,5-naphthyridine-2-carbonitrile], the values for the IC50 in test [1] and in test [2] were 1100 nM and 3800 nM, respectively. Further, the EC50 in test [3] is 900 nM; in test [4] (24 h), 4400 nM.
Take `C[C@@H]1CN(c2cc(=O)n(C)c3ccc(C#N)nc23)[C@@H](C)CN1Cc1c(F)cccc1Cl` [Example 261, 8-[(2S,5R)-4-[(2-chloro-6-fluorophenyl)methyl]-2,5-dimethylpiperazin-1-yl]-5-methyl-6-oxo-5,6-dihydro-1,5-naphthyridine-2-carbonitrile]: the figures for the half-maximal inhibitory concentration (IC50) in test [1] and in test [2] were 1100 nM and 390 nM, respectively. In addition, the EC50 in test [3] worked out at 230 nM; in test [4] (24 h), 880 nM.
Turning to `C[C@@H]1CN(c2cc(=O)n(C)c3ccc(C#N)nc23)[C@@H](C)CN1Cc1cc(F)ccc1F` [Example 262, 8-[(2S,5R)-4-[(2,5-difluorophenyl)methyl]-2,5-dimethylpiperazin-1-yl]-5-methyl-6-oxo-5,6-dihydro-1,5-naphthyridine-2-carbonitrile], the concentration for half-maximal inhibition (IC50) in test [1] amounted to 2500 nM; in test [2], 640 nM. Moreover, the figures for the 50% effective concentration (EC50) in test [3] and in test [4] (24 h) were 310 nM and 7100 nM, respectively.
For `C[C@@H]1CN(c2cc(=O)n(C)c3ccc(C#N)nc23)[C@@H](C)CN1Cc1c(Cl)cccc1Cl` [Example 263, 8-[(2S,5R)-4-[(2,6-dichlorophenyl)methyl]-2,5-dimethylpiperazin-1-yl]-5-methyl-6-oxo-5,6-dihydro-1,5-naphthyridine-2-carbonitrile], the IC50 amounted to 1700 nM in test [1] and 6500 nM in test [2]. For the same molecule, the figures for the EC50 in test [3] and in test [4] (24 h) were 610 nM and 6300 nM, respectively.
On the same counts, the results for `C[C@@H]1CN(c2cc(=O)n(C)c3ccc(C#N)nc23)[C@@H](C)CN1Cc1ccccc1` [Example 264, 8-[(2S,5R)-4-benzyl-2,5-dimethylpiperazin-1-yl]-5-methyl-6-oxo-5,6-dihydro-1,5-naphthyridine-2-carbonitrile] are 3000 nM, 35 nM, 260 nM and 11000 nM.
For `Cc1cccc(C)c1CN1C[C@H](C)N(c2cc(=O)n(C)c3ccc(C#N)nc23)C[C@H]1C` [Example 265, 8-[(2S,5R)-4-[(2,6-dimethylphenyl)methyl]-2,5-dimethylpiperazin-1-yl]-5-methyl-6-oxo-5,6-dihydro-1,5-naphthyridine-2-carbonitrile], the values for the IC50 in test [1] and in test [2] were 2600 nM and 23000 nM, respectively. In addition, the 50% effective concentration (EC50) in test [3] turned out to be 1600 nM; in test [4] (24 h) it was 3800 nM.
For `C[C@@H]1CN(c2cc(=O)n(C)c3ccc(C#N)nc23)[C@@H](C)CN1Cc1c(F)ccc(F)c1Cl` [Example 266, 8-[(2S,5R)-4-[(2-chloro-3,6-difluorophenyl)methyl]-2,5-dimethylpiperazin-1-yl]-5-methyl-6-oxo-5,6-dihydro-1,5-naphthyridine-2-carbonitrile], in that order: 2100 nM, 1400 nM, 1100 nM and 2800 nM.

What is called IC50 is the concentration that inhibits the measured activity by half. In general, EC50 refers to the concentration at which the effect is half-maximal.
